Measurements: paper PMC8485799, “Synthesis and Antiprotozoal Profile of 3,4,5‐Trisubstituted Isoxazoles” (ChemistryOpen, 2021)

Legend:
[1] = system: promastigote forms of Leishmania amazonensis (WHOM/BR/75/JOSEFA strain); assay: Antiproliferative assay (XTT), promastigote forms, 72 h; type: cell-based; details: for IC50: Leishmania amazonensis, promastigote form, 72 h, XTT, read-out: L. amazonensis IC50; for SIL-M, selectivity index (Macrophages CC50/L. amazonensis IC50): macrophages vs promastigote; for SIL-F, selectivity index (Fibroblast CC50/L. amazonensis IC50): fibroblast vs promastigote
Method: (§1) The antiproliferative activity was determined in promastigote forms of Leishmania amazonensis (WHOM/BR/75/JOSEFA strain) and epimastigote forms of Trypanosoma cruzi (Y strain). The promastigote forms of L. amazonensis were cultured in Warren medium (brain heart infusion, hemin, and folic acid; pH 7.4) supplemented with 10 % fetal bovine serum (FBS) at 25 °C. The epimastigote forms of T.cruzi were cultured in LIT medium (liver infusion tryptose; hemin, and folic acid; pH 7.4) supplemented with 10 % FBS at 28 °C. Cytotoxicity in mammalian cells was determined in fibroblast line (L929) and macrophages (J774 A1). Fibroblasts were cultured in DMEM medium (pH 7.2) supplemented with 10 % FBS at 37 °C in a 5 % CO2 atmosphere. Macrophages were cultured in RPMI‐1640 (pH 7.2) medium supplemented with 10 % FBS at 37 °C in a 5 % CO2 atmosphere.
(§2) Stock solutions of the compounds were prepared in DMSO and then diluted in the respective medium.
(§3) Promastigote forms (1×10^6 parasites.mL^−1) were cultured in 96‐well plates in the presence and absence of different concentrations of compounds diluted in Warren medium supplemented with 10 % FBS and incubated for 72 h. The epimastigote forms (1×10^6 parasites.mL^−1) were cultured in 96‐well plates in the presence and absence of different concentrations of compounds diluted in LIT medium supplemented with 10 % FBS and incubated for 96 h. After treatment, the parasites were incubated with a solution of 2,3‐bis(2‐methoxy‐4‐nitro‐5‐sulfophenyl)‐2H‐tetrazolium‐5‐carboxanilide (XTT; 0.5 mg.mL^−1) and phenazine methanesulfonate activator (PMS; 0.06 mg.mL^−1) in PBS for 4 h. Then, the absorbance was read in a microplate reader (Bio Tek‐Power Wave XS) at 450 nm.[20] The percentage of viable parasites was calculated in relation to the control in order to determine the concentration that inhibits 50 % of the protozoa (IC50). The control groups of each experiment received the same experimental conditions as the treated groups (cell concentration used, temperature, and incubation time).

[2] = system: epimastigote forms of Trypanosoma cruzi (Y strain); assay: Antiproliferative assay (XTT), epimastigote forms, 96 h; type: cell-based; details: for IC50: Trypanosoma cruzi, epimastigote form, 96 h, XTT, read-out: T. cruzi IC50; for SIT-F, selectivity index (Fibroblast CC50/T. cruzi IC50): fibroblast vs epimastigote; for SIT-M, selectivity index (Macrophages CC50/T. cruzi IC50): macrophages vs epimastigote
Method: as §1, §2, §3

[3] = Cytotoxicity assay in mammalian cells (MTT), fibroblasts, 72 h; type: cell-based; details: mouse, L929 fibroblast cells, pH 7.2; 50 % inhibition of fibroblast growth, 72 h, MTT
Method: as §1, §2
(§4) Fibroblast cell (2.5×10^5 cells.mL^−1) suspensions were prepared in DMEM medium supplemented with 10 % FBS and added to 96‐well plates. Then, the plates were incubated at 37 °C in a CO2 atmosphere for 24 h to obtain confluent cell growth. After incubation, cells were treated with different concentrations of compounds diluted in DMEM for 72 h or left untreated. Macrophage (5×10^5 cells.mL^−1) suspensions were prepared in RPMI‐1640 medium supplemented with 10 % FBS and added to 96‐well plates. Then, the plates were incubated at 37 °C in a CO2 atmosphere for 24 h to obtain confluent cell growth. After incubation, cells were treated with different concentrations of compounds diluted in RPMI‐1640 for 48 h or left untreated. After treatment, the medium was removed, and cells were incubated with MTT (2 mg.mL^−1) for 4 h. Then, DMSO was added for solubilization of the formazan and analyzed with a reading microplate reader (BIO‐TEK PowerWave XS spectrophotometer) at […].[20] The percentage of viable cells was calculated in relation to the untreated control group to determine the cytotoxic concentration in 50 % of the cells (CC50). The control groups of each experiment received the same experimental conditions as the treated groups (cell concentration used, temperature, CO2, and incubation time).

[4] = Cytotoxicity assay in mammalian cells (MTT), macrophages, 48 h; type: cell-based; details: mouse, J774 A1 macrophages, pH 7.2; 50 % inhibition of macrophages growth, 48 h, MTT
Method: as §1, §2, §4

SMILES | IC50 [1] [µM] | SIL-M, selectivity index (Macrophages CC50/L. amazonensis IC50) [1] | IC50 [2] [µM] | SIT-F, selectivity index (Fibroblast CC50/T. cruzi IC50) [2] | SIT-M, selectivity index (Macrophages CC50/T. cruzi IC50) [2] | CC50 at 72 h [3] [µM] | CC50 at 48 h [4] [µM] | melting point [°C] | SIL-F, selectivity index (Fibroblast CC50/L. amazonensis IC50) [1]
NNC(=O)c1noc(-c2ccc(F)cc2)c1CNc1ccccc1 [3 ca] | 20.3 ± 0.9 | 8.57 | 22.8 ± 1.7 | 10.25 | 7.63 | 198 ± 5 | 174 ± 8.1 | 174 to 175 | 
NNC(=O)c1noc(-c2ccc(F)cc2)c1CNc1ccc(Cl)cc1 [3 cb] | 172 ± 10.4 | 4.04 | > 200 |  |  | 802 ± 11.4 | 694 ± 10.7 | 178.1 to 181.2 | 4.67
COc1ccc(NCc2c(C(=O)NN)noc2-c2ccc(F)cc2)cc1 [3 cc] | 59.2 ± 5.7 | 2.53 | 65.3 ± 3.6 | 2.54 | 2.29 | 166 ± 9.6 | 150 ± 4.4 | 171.1 to 173.6 | 2.80
NNC(=O)c1noc(-c2ccc(Cl)cc2)c1CNc1ccccc1 [3 da] | 23.1 ± 1.5 | 11.12 | 27.9 ± 2.3 | 10.93 | 9.20 | 305 ± 11.4 | 257 ± 6.8 | 202.8 to 205.6 | 13.21
NNC(=O)c1noc(-c2ccc(Cl)cc2)c1CNc1ccc(Cl)cc1 [3 db] | 59.1 ± 4.6 | 5.68 | 55.7 ± 10.2 | 6.84 | 6.03 | 381 ± 4.2 | 336 ± 5.1 | 175.9 to 177.8 | 6.44
COc1ccc(NCc2c(C(=O)NN)noc2-c2ccc(Cl)cc2)cc1 [3 dc] | 55.8 ± 3.9 | 3.76 | 49.5 ± 2.9 | 6.25 | 4.24 | 310 ± 8.9 | 210 ± 3.5 | 157 to 158.8 | 5.55
COc1ccc(NCc2c(C(=O)N/N=C/c3ccc(-c4cccs4)s3)noc2-c2ccc(F)cc2)cc1 [6 cc] | 20.6 ± 1.7 | 12.97 | 22.8 ± 3 | 13.84 | 11.71 | 316 ± 10.8 | 267 ± 7.9 |  | 15.32
O=C(N/N=C/c1ccc(-c2cccs2)s1)c1noc(-c2ccc(Cl)cc2)c1CNc1ccc(Cl)cc1 [6 db] | 38.5 ± 4.6 | 7.81 | 33.6 ± 4.8 | 9.21 | 8.94 | 310 ± 3.1 | 300 ± 4.2 |  | 8.04
